Source: patent US11225465B2, “Albicidin derivatives, their use and synthesis” (TECHNISCHE UNIVERSITÄT BERLIN, priority 2017, dated 2022)
Converted amounts (≈) assume the structure as drawn.

Tests used:
Format in all cases: cell-based
[1] = test system: Bacillus subtilis DSM10; assay: Microdilution assay, MIC; details: DSM10, 20 h, read-out: MIC B. subtilis DSM10
Protocol: (§1) The tests were performed using the micro dilution method.
(§2) The determination of MIC values was performed according to the ninth edition of the Approved Standard M07-A9 (CLSI. Methods for Dilution Antimicrobial Susceptibility Tests for Bacteria That Grow Aerobically; Approved Standard—Ninth Edition. CLSI document M07-A9. Wayne, Pa.: Clinical and Laboratory Standards Institute; 2012.)
(§3) The test was carried out for four different bacterial strains (E. coli DSM 1116 [gram negative], B. subtilis DSM 10 [gram positive], M. luteus DSM 1790 [gram positive], S. typhimurium TA100 [gram negative]). 20 μL of cryo stock of each strain were inoculated in 20 mL of LB media (Lysogeny broth: 10 g/L peptone, 5 g/L yeast extract, 5 g/L NaCl) followed by incubation over night at 37° C., 200 rpm. The test inoculum was adjusted by the 0.5 McFarland Standard (OD625 from 0.08 to 0.1). Within 15 min of preparation, the adjusted inoculum suspension was diluted in MHBII media (BBL T M Mueller-Hinton Broth II, Becton, Dickinson and Company, N.J./USA) so that each well contained approximately 5×10^5 CFU/mL in a final volume of 100 μL. 95 μL of the inoculum were applied per well and 5 μL of the (diluted) antibiotic substance were added.
(§4) Previously the dry antibiotic compounds were dissolved in DMSO (100%) with a concentration of 2560 μg/mL and the resulting stock solutions were further diluted in DMSO (100%). 5 μL of each antibiotic dilution were applied to the microdilution tray to reach final concentrations of 64 μg/mL to 0.008 μg/mL. One row of each well plate was left as a growth control without antibiotic substances and another row of the microdilution tray was used as sterility control (only MHB II-media). The antimicrobial effect of the solvent (DMSO) was tested by adding 5 μL DMSO to several wells without antibiotics.
(§5) Purity check and cell titer control were performed according to International Standard M07-A9 on Mueller-Hinton II Agar (Mueller Hinton II Broth, 15 g/L agar-agar).
(§6) Both microdilution trays and agar plates were incubated at 37° C. for 20 h and subsequently analyzed visually.

[2] = test system: E. coli DSM 1116; assay: Microdilution assay, MIC; details: Escherichia coli, DSM1116, 20 h, read-out: MIC E. coli DSM1116
Protocol: as §1, §2, §3, §4, §5, §6

[3] = test system: Micrococcus luteus DSM1790; assay: Microdilution assay, MIC; details: DSM1790, 20 h, read-out: MIC M. luteus DSM1790
Protocol: as §1, §2, §3, §4, §5, §6

[4] = test system: S. typhimurium TA100; assay: Microdilution assay, MIC; details: Salmonella enterica, 20 h, read-out: MIC S. typhimurium TA100
Protocol: as §1, §2, §3, §4, §5, §6

[5] = test system: Acinetobacter baumannii PEG 10-12-26; assay: MHK against further strains (Table 2); details: Nr. 22 Acinetobacter baumannii PEG 10-12-26, clinical isolate
Protocol: as §1, §2

[6] = test system: Acinetobacter baumannii PEG 10-57-31; assay: MHK against further strains (Table 2); details: Nr. 23 Acinetobacter baumannii PEG 10-57-31, clinical isolate; KBE/ml 2.60E+05
Protocol: as §1, §2

[7] = test system: Acinetobacter baumannii PEG 10-86-5; assay: MHK against further strains (Table 2); details: Nr. 25 Acinetobacter baumannii PEG 10-86-5, clinical isolate; KBE/ml 2.00E+05
Protocol: as §1, §2

[8] = test system: Enterobacter aerogenes 220-1-22; assay: MHK against further strains (Table 2); details: Nr. 18 Enterobacter aerogenes 220-1-22, clinical isolate
Protocol: as §1, §2

[9] = test system: Enterobacter asburiae PEG-13-74-62; assay: MHK against further strains (Table 2); details: Nr. 19 Enterobacter asburiae PEG-13-74-62, clinical isolate; KBE/ml 8.20E+05
Protocol: as §1, §2

[10] = test system: Enterobacter cloacae PEG-10-52-78; assay: MHK against further strains (Table 2); details: Nr. 17 Enterobacter cloacae PEG-10-52-78, clinical isolate
Protocol: as §1, §2

[11] = test system: Enterococcus faecium PEG 13-17-59; assay: MHK against further strains (Table 2); details: Nr. 29 Enterococcus faecium PEG 13-17-59, clinical isolate
Protocol: as §1, §2

[12] = test system: Enterococcus faecium PEG 13-9-13; assay: MHK against further strains (Table 2); details: Nr. 28 Enterococcus faecium PEG 13-9-13, clinical isolate
Protocol: as §1, §2

[13] = test system: Escherichia coli 100-2-49; assay: MHK against further strains (Table 2); details: Nr. 2 Escherichia coli 100-2-49, clinical isolate; KBE/ml 3.80E+05
Protocol: as §1, §2

[14] = test system: Escherichia coli 100-2-56; assay: MHK against further strains (Table 2); details: Nr. 3 Escherichia coli 100-2-56, clinical isolate
Protocol: as §1, §2

[15] = test system: Escherichia coli PEG 10-2-81; assay: MHK against further strains (Table 2); details: Nr. 10 Escherichia coli PEG 10-2-81, clinical isolate
Protocol: as §1, §2

[16] = test system: Klebsiella oxytoca PEG-10-45-54; assay: MHK against further strains (Table 2); details: Nr. 16 Klebsiella oxytoca PEG-10-45-54, clinical isolate; KBE/ml 4.40E+05
Protocol: as §1, §2

[17] = test system: Klebsiella pneumoniae PEG-10-48-8; assay: MHK against further strains (Table 2); details: Nr. 12 Klebsiella pneumoniae PEG-10-48-8, clinical isolate
Protocol: as §1, §2

[18] = test system: Klebsiella pneumoniae PEG-10-75-61; assay: MHK against further strains (Table 2); details: Nr. 13 Klebsiella pneumoniae PEG-10-75-61, clinical isolate; KBE/ml 4.00E+05
Protocol: as §1, §2

[19] = test system: Klebsiella pneumoniae PEG-10-90-74; assay: MHK against further strains (Table 2); details: Nr. 5 Klebsiella pneumoniae PEG-10-90-74, clinical isolate; KBE/ml 4.00E+05
Protocol: as §1, §2

[20] = test system: Pseudomonas aeruginosa ATCC 27853; assay: MHK against further strains (Table 2); details: Nr. 6 Pseudomonas aeruginosa ATCC 27853; KBE/ml 5.60E+05
Protocol: as §1, §2

[21] = test system: Pseudomonas aeruginosa PEG-10-2-61; assay: MHK against further strains (Table 2); details: Nr. 7 Pseudomonas aeruginosa PEG-10-2-61, clinical isolate
Protocol: as §1, §2

[22] = test system: Staphylococcus aureus ATCC 29213; assay: MHK against further strains (Table 2); details: Nr. 8 Staphylococcus aureus ATCC 29213; KBE/ml 6.60E+05
Protocol: as §1, §2

[23] = test system: Staphylococcus aureus PEG 13-71-26; assay: MHK against further strains (Table 2); details: Nr. 27 Staphylococcus aureus PEG 13-71-26, clinical isolate
Protocol: as §1, §2

SMILES: COc1c(NC(=O)c2ccc(NC(=O)c3ccc(NC(=O)[C@@H](CN(C)C)NC(=O)c4ccc(NC(=O)/C(C)=C/c5ccc(O)cc5)cc4)cc3)c(OC)c2O)ccc(C(=O)O)c1O [Compound 16, D-DMDAP-Albicidin]
- MIC [1]: 1000 µg/mL (≈ 1160 µM)
- MIC [2]: 500 µg/mL (≈ 581 µM)
- MIC [3]: ≥ 8000 µg/mL
- MIC [4]: 250 µg/mL (≈ 290 µM)
- MHK [5]: 32 mg/L
- MHK [6]: 32 mg/L
- MHK [7]: 32 mg/L
- MHK [8]: 32 mg/L
- MHK [9]: 32 mg/L
- MHK [10]: 32 mg/L
- MHK [11]: 32 mg/L
- MHK [12]: 32 mg/L
- MHK [13]: 32 mg/L
- MHK [14]: 32 mg/L
- MHK [15]: 32 mg/L
- MHK [16]: 32 mg/L
- MHK [17]: 32 mg/L
- MHK [18]: 32 mg/L
- MHK [19]: 32 mg/L
- MHK [20]: 32 mg/L
- MHK [21]: 32 mg/L
- MHK [22]: 32 mg/L
- MHK [23]: 32 mg/L

SMILES: COc1c(NC(=O)c2ccc(NC(=O)c3ccc(NC(=O)[C@H](Cc4c[nH]cn4)NC(=O)c4ccc(NC(=O)/C(C)=C/c5ccc(O)cc5)cc4)cc3)c(OC)c2O)ccc(C(=O)O)c1O [Compound 1, L-His-albicidin]
- MIC [1]: 500 µg/mL (≈ 566 µM)
- MIC [2]: 63 µg/mL (≈ 71.3 µM)
- MIC [3]: 4000 µg/mL (≈ 4530 µM)
- MIC [4]: 31 µg/mL (≈ 35.1 µM)
- MHK [5]: 16 mg/L
- MHK [6]: 32 mg/L
- MHK [7]: 4 mg/L
- MHK [8]: 32 mg/L
- MHK [9]: 32 mg/L
- MHK [10]: 32 mg/L
- MHK [11]: 32 mg/L
- MHK [12]: 32 mg/L
- MHK [13]: 0.5 mg/L
- MHK [14]: 2 mg/L
- MHK [15]: 0.5 mg/L
- MHK [16]: 4 mg/L
- MHK [17]: 32 mg/L
- MHK [18]: 32 mg/L
- MHK [19]: 32 mg/L
- MHK [20]: 2 mg/L
- MHK [21]: 32 mg/L
- MHK [22]: 8 mg/L
- MHK [23]: 4 mg/L

SMILES: COc1c(NC(=O)c2ccc(NC(=O)c3ccc(NC(=O)[C@H](CN(C)C)NC(=O)c4ccc(NC(=O)/C(C)=C/c5ccc(O)cc5)cc4)cc3)c(OC)c2O)ccc(C(=O)O)c1O [Compound 2, L-DMDAP-Albicidin]
- MIC [1]: 125 µg/mL (≈ 145 µM)
- MIC [2]: 125 µg/mL (≈ 145 µM)
- MIC [3]: 2000 µg/mL (≈ 2320 µM)
- MIC [4]: 31 µg/mL (≈ 36 µM)
- MHK [5]: 32 mg/L
- MHK [6]: 32 mg/L
- MHK [7]: 32 mg/L
- MHK [8]: 32 mg/L
- MHK [9]: 32 mg/L
- MHK [10]: 32 mg/L
- MHK [11]: 32 mg/L
- MHK [12]: 32 mg/L
- MHK [13]: 32 mg/L
- MHK [14]: 32 mg/L
- MHK [15]: 32 mg/L
- MHK [16]: 32 mg/L
- MHK [17]: 32 mg/L
- MHK [18]: 32 mg/L
- MHK [19]: 32 mg/L
- MHK [20]: 32 mg/L
- MHK [21]: 32 mg/L
- MHK [22]: 32 mg/L
- MHK [23]: 32 mg/L

SMILES: COc1c(NC(=O)c2ccc(NC(=O)c3ccc(NC(=O)C(Cc4c[nH]nn4)NC(=O)c4ccc(NC(=O)/C(C)=C/c5ccc(O)cc5)cc4)cc3)c(OC)c2O)ccc(C(=O)O)c1O [Compound 3, L-Azahis-Albicidin]
- MIC [1]: 125 µg/mL (≈ 141 µM)
- MIC [2]: ≤ 16 µg/mL
- MIC [3]: 500 µg/mL (≈ 565 µM)
- MIC [4]: ≤ 16 µg/mL
- MHK [5]: 16 mg/L
- MHK [6]: 32 mg/L
- MHK [7]: 4 mg/L
- MHK [8]: 4 mg/L
- MHK [9]: 32 mg/L
- MHK [10]: 32 mg/L
- MHK [11]: 8 mg/L
- MHK [12]: 8 mg/L
- MHK [13]: 0.063 mg/L
- MHK [14]: 0.25 mg/L
- MHK [15]: 0.063 mg/L
- MHK [16]: 0.5 mg/L
- MHK [17]: 32 mg/L
- MHK [18]: 32 mg/L
- MHK [19]: 32 mg/L
- MHK [20]: 1 mg/L
- MHK [21]: 8 mg/L
- MHK [22]: 0.5 mg/L
- MHK [23]: 0.125 mg/L
